Patent publication US20260262647A1, “Synergistic Compositions Containing Guanidine” (Thor GmbH, priority 2023, published 2026)
Where “and” joins values, the source holds several entries; their conditions need not be identical. Equal values may be shown once.

What was measured:
Assay type in all cases: cell-based
bacteria mixture B = test: Emulsion paint inoculated once with bacteria mixture B, semiquantitative growth evaluation; set-up: key: 0: No growth; Minimal growth, 1 to 10 colonies visible over the entire streak; 2: Light growth, maximum 100 colonies; Moderate growth, maximum 300 to 400 colonies; Uniform growth, >400 colonies, single colonies still clearly recognizable; 5: Heavy growth, too many colonies to count, but no growth over the entire streak; 6: Full growth, barely any single colonies still apparent, growth over the entire streak; conditions: +6000 ppm guanidine hydrochloride (3708 ppm guanidine)
Source text: In examples 35 to 38 below, synergistic interaction between guanidine and antimicrobial substances with respect to microbial infestation was studied using an emulsion paint and a laundry detergent or cleaning composition by adding particular amounts of guanidine salts and isothiazolinones and examining their stability against microbial infestation: […] The laundry detergent was a heavy-duty laundry detergent without preservatives (pH 8.1), and the cleaning composition was an all-purpose detergent without preservatives (pH 7.6), each likewise made in the laboratory, without addition of the otherwise usual conventional preservatives. To each paint was added—individually and in combination—particular concentrations of guanidinium hydrochloride, benzisothiazolinone (BIT), and a mixture of chloromethylisothiazolinone (CIT) and methylisothiazolinone (MIT). The laundry detergent and the cleaning composition were admixed with particular concentrations of guanidinium hydrochloride and benzisothiazolinone (BIT). The resultant batches of the paint thus prepared were inoculated with a mixture of different bacteria species (bacteria mixture B); the batches of the laundry detergent and cleaning compositions thus prepared were inoculated with a yeast mixture. • Pseudomonas spp. (Pseudomonas oleovorans group) DSM 33933 • Pseudomonas aeruginosa DSM 33935 • Pseudomonas oleovorans DSM 33936 • Pseudomonas spec. DSM 33937 • Pseudomonas aeruginosa DSM 33938 […] The cell suspension of the bacteria mixture was produced by growing the individual bacteria at 30° C. for 24 h in liquid culture on a shaker. The growth medium used for the bacteria was Müller-Hinton liquid medium. After growing, the individual liquid cultures were centrifuged, and the cells were resuspended in physiological saline solution. […] The cell count of the inoculum was determined in each case by chamber counting. […] The streaked agar plates were then incubated at 30° C. for 48 hours (bacteria) or at 25° C. for 72 hours (yeasts). After incubation, the bacterial or yeast colonies that have grown on the agar plates were visually evaluated and quantified according to the following scheme: [table]

yeast mixture = test: All-purpose detergent inoculated once with yeast mixture, semiquantitative growth evaluation; set-up: key: 0: No growth; Minimal growth, 1 to 10 colonies visible over the entire streak; 2: Light growth, maximum 100 colonies; Moderate growth, maximum 300 to 400 colonies; Uniform growth, >400 colonies, single colonies still clearly recognizable; 5: Heavy growth, too many colonies to count, but no growth over the entire streak; 6: Full growth, barely any single colonies still apparent, growth over the entire streak; conditions: Example 38, all-purpose detergent, +8000 ppm guanidine hydrochloride (4944 ppm guanidine)
Source text: In examples 35 to 38 below, synergistic interaction between guanidine and antimicrobial substances with respect to microbial infestation was studied using an emulsion paint and a laundry detergent or cleaning composition by adding particular amounts of guanidine salts and isothiazolinones and examining their stability against microbial infestation: […] The laundry detergent was a heavy-duty laundry detergent without preservatives (pH 8.1), and the cleaning composition was an all-purpose detergent without preservatives (pH 7.6), each likewise made in the laboratory, without addition of the otherwise usual conventional preservatives. To each paint was added—individually and in combination—particular concentrations of guanidinium hydrochloride, benzisothiazolinone (BIT), and a mixture of chloromethylisothiazolinone (CIT) and methylisothiazolinone (MIT). The laundry detergent and the cleaning composition were admixed with particular concentrations of guanidinium hydrochloride and benzisothiazolinone (BIT). The resultant batches of the paint thus prepared were inoculated with a mixture of different bacteria species (bacteria mixture B); the batches of the laundry detergent and cleaning compositions thus prepared were inoculated with a yeast mixture. • Pichia manshurica DSM 12249 • Rhodotorula mucilaginosa DSM 12248 • Candida boidinii DSM 13622 • Candida albicans DSM 1386 […] Further steps for establishment of a cell count of the inoculum suspension of 10^8/ml were effected analogously to the production of the bacteria suspension. […] The streaked agar plates were then incubated at 30° C. for 48 hours (bacteria) or at 25° C. for 72 hours (yeasts). After incubation, the bacterial or yeast colonies that have grown on the agar plates were visually evaluated and quantified according to the following scheme: [table]

[1] = test system: Pseudomonas spec. DSM 115322; test: Minimum inhibitory concentrations and synergy index in Müller-Hinton broth; conditions: for QA: Concentration of guanidine as the sole agent that shows an endpoint: guanidine (added as guanidine hydrochloride) alone, 48 hours at 30° C.
Method: Test organisms used were Gram-negative bacterial species from the group of pseudomonads, Pseudomonas putida DSM 115323 and Pseudomonas spec. DSM 115322. For this purpose, mixtures with different concentrations of the respective active substances were prepared and tested for their effect on the pseudomonads. The test was run in Müller-Hinton broth MHB with a cell density of 10^6 microbes per ml. When organic acids are used as a combination partner with the guanidine, MHB was adjusted to pH 5.5.
The incubation was run in microplates at 30° C. for 48 hours. After 48 hours, the batches were evaluated for turbidity resulting from growth, and optical density was additionally determined photometrically. In this way, the minimum inhibitory concentrations (MICs) of the two actives were determined individually and in combination.
The calculation was done according to the standard method of F. C. Kull et al., Applied Microbiology, vol. 9 (1961), p. 538.
This involves calculating the synergy index (SI) by the following formula:
[formula] • Qa=concentration of component A in the A+B mixture • QA=concentration of component A as the sole biocide • Qb=concentration of component B in the A+B mixture • QB=concentration of component B as the sole biocide
If the synergy index is greater than 1, this means that there is antagonism. If the synergy index assumes the value 1, this means that the effect of the two biocides/compounds is additive. If the synergy index assumes a value of less than 1, this means that there is synergism between the two biocides/compounds.

`N=C(N)N` [guanidine] gave a Bacterial growth (bacteria mixture B; Example 35, emulsion paint, Day 1) of 6, a Bacterial growth (bacteria mixture B; Example 35, emulsion paint, Day 6) of 6 and a Bacterial growth (bacteria mixture B; Example 36, emulsion paint, Day 1) of 6. The Bacterial growth (bacteria mixture B; Example 36, emulsion paint, Day 6) was 6, the Yeast growth (yeast mixture; Day 1) was 6 and the Yeast growth (yeast mixture; Day 3) was 4 (Uniform growth, >400 colonies, single colonies still clearly recognizable). For the same compound, the “QA: Concentration of guanidine as the sole agent that shows an endpoint” value ([1]; MHB adjusted to pH 5.5) was 12359 ppm, the “QA: Concentration of guanidine as the sole agent that shows an endpoint” value ([1]; MHB) was 9269 ppm and 9105 ppm and the “Synergy index Qa/QA + Qb/QB” value ([1]; guanidine and AEPD) was 1.00. The “Synergy index Qa/QA + Qb/QB” value ([1]; guanidine and AMP) was 1.00, the “Synergy index Qa/QA + Qb/QB” value ([1]; guanidine and BBIT) was 1.00 and the “Synergy index Qa/QA + Qb/QB” value ([1]; guanidine and BIT) was 1.00. The “Synergy index Qa/QA + Qb/QB” value ([1]; guanidine and DBDCB) was 1.00, the “Synergy index Qa/QA + Qb/QB” value ([1]; guanidine and DBNPA) was 1.00 and the “Synergy index Qa/QA + Qb/QB” value ([1]; guanidine and EDTA) was 1.00. The “Synergy index Qa/QA + Qb/QB” value ([1]; guanidine and EHG) was 1.00, the “Synergy index Qa/QA + Qb/QB” value ([1]; guanidine and HEDP) was 1.00 and the “Synergy index Qa/QA + Qb/QB” value ([1]; guanidine and IPBC) was 1.00. For the same compound, the “Synergy index Qa/QA + Qb/QB” value ([1]; guanidine and MBIT) was 1.00, the “Synergy index Qa/QA + Qb/QB” value ([1]; guanidine and MEA) was 1.00 and the “Synergy index Qa/QA + Qb/QB” value ([1]; guanidine and MIT) was 1.00. The “Synergy index Qa/QA + Qb/QB” value ([1]; guanidine and OIT) was 1.00, the “Synergy index Qa/QA + Qb/QB” value ([1]; guanidine and benzoic acid, pH 5.5) was 1.00 and the “Synergy index Qa/QA + Qb/QB” value ([1]; guanidine and benzyl alcohol) was 1.00. For the same compound, the “Synergy index Qa/QA + Qb/QB” value ([1]; guanidine and bronopol) was 1.00, the “Synergy index Qa/QA + Qb/QB” value ([1]; guanidine and citric acid, pH 5.5) was 1.00 and the “Synergy index Qa/QA + Qb/QB” value ([1]; guanidine and heptane-1,2-diol) was 1.00. For the same compound, the “Synergy index Qa/QA + Qb/QB” value ([1]; guanidine and hexane-1,2-diol) was 1.00, the “Synergy index Qa/QA + Qb/QB” value ([1]; guanidine and hexylglycerol) was 1.00 and the “Synergy index Qa/QA + Qb/QB” value ([1]; guanidine and isopropanol) was 1.00. For the same compound, the “Synergy index Qa/QA + Qb/QB” value ([1]; guanidine and lactic acid, pH 5.5) was 1.00, the “Synergy index Qa/QA + Qb/QB” value ([1]; guanidine and oPP) was 1.00 and the “Synergy index Qa/QA + Qb/QB” value ([1]; guanidine and octane-1,2-diol) was 1.00. The “Synergy index Qa/QA + Qb/QB” value ([1]; guanidine and pentane-1,2-diol) was 1.00, the “Synergy index Qa/QA + Qb/QB” value ([1]; guanidine and phenethyl alcohol) was 1.00 and the “Synergy index Qa/QA + Qb/QB” value ([1]; guanidine and phenoxyethanol) was 1.00. For the same compound, the “Synergy index Qa/QA + Qb/QB” value ([1]; guanidine and phenylpropanol) was 1.00, the “Synergy index Qa/QA + Qb/QB” value ([1]; guanidine and pyrithione) was 1.00 and the “Synergy index Qa/QA + Qb/QB” value ([1]; guanidine and salicylic acid, pH 5.5) was 1.00. The “Synergy index Qa/QA + Qb/QB” value ([1]; guanidine and sorbic acid, pH 5.5) was 1.00.
